# Experimental data from patent US20200261534A1, “NEW TREATMENTS OF MULTIPLE MYELOMA” (priority 2017, published 2020).
# Where two headings read alike, the source gives them in different places. Starred links: 1 amine or outer side, 2 acyl side, 3 side chain; linkers in the order of their positions; H or OH if unused. Positions of bridges follow the written chain, without caps; N, C: chain ends. Non-standard residues stand in square brackets, D forms with d. Residues, ends and D or L forms follow the SMILES beside them. ξ: configuration not given here. ξαMeNle(6-ylidene) = CC(CCCC=[*:3])(N[*:1])C(=O)[*:2]; X1 = CC(CCCCCCC=[*:3])(N[*:1])C(=O)[*:2]; Octanediyl(1,8) = C(CCCC[*:2])CCC[*:1]; ξC = NC(CS)C(=O)O
# Columns and labels:
# [1] = system: U266DOX4, lymphoblast (myeloma), selected for resistance to Doxorubicin; format: cell-based
# Method: U266DOX4, lymphoblast (myeloma), selected for resistance to Doxorubicin (Alvarez-Fernández et al. Clin Cancer Res. 2013 May 15; 19(10):2677-87).
# All cell lines were cultured in incubator at 37° C. in RPMI-1640 (Sigma R8758) medium with 10% of fetal bovine serum inactivated (FBS) and 2 mM glutamine (Sigma G7513). During the amplification step cells were centrifuged and transferred into the culturing medium. Cells were counted in a Neubauer chamber after labelling with Tripan-Blue.
# Cells were seeded at a density of 10000 cells/well in 100 μl of medium in 96 well plates. After 24 h, the compounds to be tested were added to calculate the dose/response curve at the starting concentration of 100 μM with serial dilutions (1:1). Controls are the untreated cells. Each experiment was performed in triplicate.
# Cells were incubated with the peptidomimetic compound (S09) at the indicated concentrations during 24-72 h in incubator under CO2 atmosphere at 37° C. Then, cell viability was measured by means of MTT (3-(4,5-dimethylthiazol-2-yl)-2,5-diphenyltetrazolium bromide) assay. Stock solution of MTT (475989 Calbiochem) was 5 mg/ml in PBS. 1×.10 μl/well of MTT solution were added and the plate was incubated for 3-4 hr. The medium was discarded and 100 μl of extracting buffer (PBS 1×, 15% SDS, 50% […] N,N-Dimethylformamide, pH 4.7) were added to each well. Plates were incubated for 16 h at room temperature under orbital shaking. Absorbance at 570 nm was finally measured. As negative control (experiment noise) 3 wells were treated with 20 μl/well of a solution of SDS 10% in H2O.
# Data analysis was performed calculating the percentage of cell viability normalized vs. the values of negative control, which was considered equal to 100%. The dose/response curve was fitted through the sigmoidal equation dose-response (variable slope) and the IC50 values were calculated as follow:
# Y=Bottom+(Top−Bottom)/(1+10^{[(LogIC50−X)*HillSlope]},
# U266DOX4, lymphoblast (myeloma), selected for resistance to Doxorubicin (Alvarez-Fernandez et al. Clin Cancer Res. 2013 May 15; 19(10):2677-87).
# All cell lines were cultured in incubator at 37° C. in RPMI-1640 (Sigma R8758) medium with 10% of fetal bovine serum inactivated (FBS) and 2 mM glutamine (Sigma G7513).
# Cells were seeded at a density of 10,000 cells/well in 100 μl of medium in 96 well plates. After 24 h, the compounds to be tested were added to calculate the dose/response curve at the starting concentration of 40 μM with serial dilutions (1:1). […]
# Cells were incubated with the peptidomimetic compounds at the indicated concentrations during 24-72 h in incubator under CO2 atmosphere at 37° C. Then, cell viability was measured by means of MTT (3-(4,5-dimethylthiazol-2-yl)-2,5-diphenyltetrazolium bromide) assay. […] Absorbance at 570 nm was finally measured. […]
# [2] = system: HL-60, promyeloblast (acute myelocytic leukemia, AML); assay: MTT viability assay, HL-60; format: cell-based
# Method: HL-60, promyeloblast (acute myelocytic leukemia, AML), ECACC: 98070106 […] During the amplification step and the assays adherent cells were rinsed with DPBS (Dulbecco's Phosphate Buffered Saline, Sigma D1283) three times and afterward treated for 5 minutes with trypsin ([…]) (Gibco-BRL, 15400054) in solution of DPBS at 37° C., and, once detached, transferred in the culturing medium. No-adherent cells were centrifuged and transferred in the culturing medium. Cells were counted in a Neubauer chamber after labelling with Tripan-Blue. […] Cells were seeded at a density of 10000 cells/well in 100 μl of medium in 96 well plates. […] Controls are the untreated cells. Each experiment was performed in triplicate. Cells were incubated with the compounds at the indicated concentrations during 24-72 h in incubator under CO2 atmosphere at 37° C. […] Stock solution of MTT (475989 Calbiochem) was 5 mg/ml in PBS. 1×.10 μl/well of MTT solution were added and the plate was incubated for 3-4 hr. […] Plates were incubated for 16 h at room temperature under orbital shaking. Absorbance at 570 nm was finally measured. […] The dose/response curve was fitted through the sigmoidal equation dose-response (variable slope) and the IC50 values were calculated as follow: Y=Bottom+(Top−Bottom)/(1+10^{[(LogIC50−X)*HillSlope]},
# [3] = U266DOX4, 72 hr, Table 14, read-out: IC50 after 72 hr values
Structure (SMILES),"IC50 ([1]; U266DOX4 (resistant to Doxorubicin), MTT, 24-72 h, Table 7, read-out: IC50 values in μM for S09)","IC50 ([2]; HL-60, MTT, incubation 24-72 h, Table 3, read-out: IC50 values)","IC50 ([2]; HL-60, same protocol as Example 2, Table 6, read-out: Compound (IC50))","IC50 [1, 3]","IC50 ([1]; U266DOX4, 24 hr, Table 13, read-out: IC50 after 24 hr values)",IC50 [2]
"CC[C@H](C)[C@H](NC(=O)[C@H](Cc1ccc(O)cc1)NC(=O)[C@H](C)NC(=O)C1(C)CCCC=CCCCCCCC(C)(NC(=O)[C@H](CCCCN)NC(=O)[C@@H]2CCCN2C(=O)[C@H](C)N)C(=O)N[C@@H](C(C)C)C(=O)N[C@@H]([C@@H](C)CC)C(=O)N[C@@H](CC(C)C)C(=O)N[C@@H](CCCCN)C(=O)N[C@@H](CCCCN)C(=O)N[C@@H](C)C(=O)N1)C(=O)N[C@@H](CC(C)C)C(=O)N[C@@H](CO)C(=O)O (stereo partly shown) [S09, APKXVILKKAXAYILS—OH] (H-APK[X1]VILKKA[ξαMeNle(6-ylidene)]AYILS-OH; staple 4-11; N-terminus assumed)",5 µM,3.5 ± 0.2 µM,3.5 ± 0.2 µM,,,
"CC[C@H](C)[C@H](NC(=O)[C@H](Cc1ccc(O)cc1)NC(=O)[C@H](C)NC(=O)C1CSCCCCCCCCSCC(NC(=O)[C@H](CCCCN)NC(=O)[C@@H]2CCCN2C(=O)[C@H](C)N)C(=O)N[C@@H](C(C)C)C(=O)N[C@@H]([C@@H](C)CC)C(=O)N[C@@H](CC(C)C)C(=O)N[C@@H](CCCCN)C(=O)N[C@@H](CCCCN)C(=O)N[C@@H](C)C(=O)N1)C(=O)N[C@@H](CC(C)C)C(=O)N[C@@H](CO)C(=O)O (stereo partly shown) [IDP-P1708160] (H-APK[ξC]VILKKA[ξC]AYILS-OH; linker 4-11 via Octanediyl(1,8); N-terminus and C-terminus assumed)",,,,7.5 µM,,
"CC[C@H](C)[C@H](NC(=O)[C@H](Cc1ccc(O)cc1)NC(=O)[C@H](C)NC(=O)C1(C)CCCC=CCCCCCCC(C)(NC(=O)[C@H](CCCCN)NC(=O)[C@@H]2CCCN2C(=O)[C@H](C)N)C(=O)N[C@@H](C(C)C)C(=O)N[C@@H]([C@@H](C)CC)C(=O)N[C@@H](Cc2ccccc2)C(=O)N[C@@H](CCCCN)C(=O)N[C@@H](CCCCN)C(=O)N[C@@H](C)C(=O)N1)C(=O)N[C@@H](CC(C)C)C(=O)N[C@@H](CO)C(=O)O (stereo partly shown) [S14, APKXVIFKKAXAYILS—OH] (H-APK[X1]VIFKKA[ξαMeNle(6-ylidene)]AYILS-OH; staple 4-11; N-terminus assumed)",,,,15 µM,15 µM,7.8 ± 0.4 µM
